The text below walks through data of patent US20030138432A1, “Selective cellular targeting: multifunctional delivery vehicles, multifunctional prodrugs, use as antineoplastic drugs” (Drug Innovation & Design, Inc., priority 1999, published 2003).

pIC50, pKi: −log10 of the molar value. Where two headings read alike, the source gives them in different places.

In data set [1] the target is dihydroorotic acid dehydrogenase (Homo sapiens, UniProt Q02127). As to conditions: cited from earlier work.
In data set [2] the target is T1, PSMA (Homo sapiens, UniProt Q04609).
T1 construct: PSMA was prepared from LNCaP prostatic carcinoma cells as described by Pinto J. T. et al; endogenous in cells; host or cells: LNCaP prostatic carcinoma cells
The data set is described as follows: Inhibition of PSMA, radiolabelled N-acetylaspartylglutamate as substrate, generation of glutamic acid monitored. In kind it is biochemical. As for the experimental part:
PSMA was prepared from LNCaP prostatic carcinoma cells as described by Pinto J. T. et al., Clinical Cancer Res. Vol.2 p.1445 (1996). The enzyme was assayed employing radiolabelled N-acetylaspartylglutamate as a substrate and monitoring the generation of glutamic acid in the presence of varying concentrations of Compound 1 or 1.1. […] Compound 1.1 inhibited the enzyme 50% at 3.4 nM.

For data set [3] the following is noted: read-out: IC50 (cytotoxin); cited from earlier work.
The subject of data set [4] is PSMA positive human prostate tumor cells. The data set is described as follows: In vitro growth of PSMA positive prostate tumor cells with a PSMA inhibitor. In kind it is cell-based. As to conditions: in the presence of high concentrations of the inhibitor.
The subject of data set [5] is IMP dehydrogenase. The conditions noted are these: cited from earlier work.
Data set [6] has as its target PKA (Homo sapiens, UniProt P17612). As to conditions: cited from earlier work.
In data set [7] the target is Protein Kinase C (PKC). As to conditions: cited from earlier work.

T1 sequence (Q04609 whole entry): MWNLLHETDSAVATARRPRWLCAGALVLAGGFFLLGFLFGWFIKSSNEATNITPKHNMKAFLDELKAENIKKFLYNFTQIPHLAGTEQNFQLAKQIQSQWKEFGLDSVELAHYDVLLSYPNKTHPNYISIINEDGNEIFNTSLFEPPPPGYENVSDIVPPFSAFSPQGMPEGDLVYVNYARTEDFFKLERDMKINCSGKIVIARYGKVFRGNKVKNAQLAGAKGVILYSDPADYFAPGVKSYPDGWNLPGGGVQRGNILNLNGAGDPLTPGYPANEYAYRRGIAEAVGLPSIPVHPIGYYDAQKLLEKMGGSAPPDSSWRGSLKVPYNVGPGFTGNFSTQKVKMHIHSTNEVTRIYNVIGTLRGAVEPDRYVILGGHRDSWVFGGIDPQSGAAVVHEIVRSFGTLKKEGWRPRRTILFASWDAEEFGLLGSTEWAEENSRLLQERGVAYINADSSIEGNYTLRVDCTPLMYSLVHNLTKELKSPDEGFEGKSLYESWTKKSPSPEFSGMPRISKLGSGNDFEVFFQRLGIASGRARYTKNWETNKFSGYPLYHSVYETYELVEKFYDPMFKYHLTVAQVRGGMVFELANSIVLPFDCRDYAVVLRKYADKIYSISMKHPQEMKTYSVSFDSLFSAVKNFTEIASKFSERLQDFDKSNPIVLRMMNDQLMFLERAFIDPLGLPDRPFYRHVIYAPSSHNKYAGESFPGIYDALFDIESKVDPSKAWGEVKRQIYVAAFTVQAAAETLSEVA
dihydroorotic acid dehydrogenase, sequence (Q02127 whole entry): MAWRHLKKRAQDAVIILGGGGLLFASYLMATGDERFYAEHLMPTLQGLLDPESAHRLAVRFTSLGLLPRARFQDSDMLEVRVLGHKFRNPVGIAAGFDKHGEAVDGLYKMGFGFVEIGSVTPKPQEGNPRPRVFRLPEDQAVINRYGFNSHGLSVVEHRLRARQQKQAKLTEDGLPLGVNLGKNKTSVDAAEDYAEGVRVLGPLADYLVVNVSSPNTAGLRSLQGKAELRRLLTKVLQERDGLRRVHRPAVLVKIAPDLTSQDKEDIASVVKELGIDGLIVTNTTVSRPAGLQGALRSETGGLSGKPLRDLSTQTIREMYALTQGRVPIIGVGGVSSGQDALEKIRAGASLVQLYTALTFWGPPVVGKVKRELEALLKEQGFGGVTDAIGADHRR

Consider `Cc1c(-c2ccc(-c3ccccc3F)cc2)nc2ccc(F)cc2c1C(=O)O` [brequinar], for which, in data set [1], the “level at which dihydroorotic acid dehydrogenase is inhibited” value is listed as “nonamolar levels”. For the compound `O=C(O)CCC(OP(=O)(O)OCCCOCCNC(=O)CCCCCNS(=O)(=O)c1ccc(C2=c3cc4c5c(c3Oc3c2cc2c6c3CCCN6CCC2)CCC[N+]=5CCC4)c(S(=O)(=O)[O-])c1)C(=O)O` (stereo not shown) [Compound 1], the pIC50 in data set [2] (PSMA prepared from LNCaP prostatic carcinoma cells, radiolabelled N-acetylaspartylglutamate substrate, read-out: concentration that inhibited the enzyme 50%) is 7.70. Also, the pKi in data set [2] (PSMA prepared from LNCaP prostatic carcinoma cells, read-out: Ki for inhibition of PSMA) is 7.70.

In data set [2], `O=C(O)CCC(CP(=O)(O)CCC(=O)NC(CCCCNC(=S)Nc1ccc(-c2c3ccc(=O)cc-3oc3cc(O)ccc23)c(C(=O)O)c1)C(=O)NCCc1ccc(O)cc1)C(=O)O` (stereo not shown) [Compound 1.1] showed a pIC50 of 8.47 and a pKi of 8.47. In the case of `COc1c(C)cc2c(c1O)C1C3Cc4c(OC(C)=O)c(C)c5c(c4C(CN4C(=O)c6ccccc6C4=O)N3C(C#N)C(C2)N1C)OCO5` (stereo not shown) [Phthalascidin], the pIC50 in data set [3] was 9.00 to 10.00. Turning to `O=C(O)CCC(CP(=O)(O)O)C(=O)O` (stereo not shown) [2-(phosphonomethyl)-pentanedioic acid], the “growth of tumor cells in vitro” value in data set [4] is “readily grow”. On to `COc1c(C)c2c(c(O)c1C/C=C(\C)CCC(=O)O)C(=O)OC2` [mycophenolic acid], for which the “level at which IMP dehydrogenase is inhibited” value in data set [5] was “nanomolar levels”. For 10″-deoxybalanol, the results for the pKi in data set [6] and in data set [7] were 8.40 and 6.19, respectively.
